Results: patent US8324268B2, “Substituted furancarboxamides, and use thereof” (AiCuris GmbH & Co. KG, priority 2008, dated 2012)

How the values were obtained:
Format in all cases: cell-based
HIV-1NL4-3 K103N-Y181C = test: Light assay with inhibitor-resistant HI reporter virus in MT4 7F2 cells; conditions: Human immunodeficiency virus 1, read-out: EC50 (nM) MT4 7F2 cells HIV-1NL4-3 K103N-Y181C 2% FCS
Method: (§1) For the mixture for a 96-well MTP, 3 million MT4 7F2 cells are pelleted, suspended in 1 ml of RPMI 1640 medium without phenol red (Invitrogen, Karlsruhe, Germany)/10% FCS/10% AIM-V (Invitrogen, Karlsruhe, Germany) and incubated together with a suitable amount of the corresponding HIV-1NL4-3 reporter virus at 37° C. for 2 hours (pellet infection). Unadsorbed viruses are subsequently washed out with PBS, and the infected cells are pelleted again and suspended in 8 ml of RPMI 1640 medium without phenol red/2% or 10% FCS/10% AIM-V. 80 μl thereof are pipetted into each well of a white 96-well MTP with 20 μl of test substance in suitable dilution. To avoid edge effects, the wells on the edge of the MTP are not used for substance dilutions. The second vertical row of the MTP contains only infected cells (virus control) and the eleventh vertical row only uninfected cells (cell control), in each case in RPMI 1640 medium without phenol red/2% or 10% FCS/10% AIM-V. The other wells of the MTP contain the compounds of the invention in various concentrations starting from the third vertical row, from which the test substances are diluted in 3-fold steps up to the tenth vertical row 3^7-fold. The test substances are dissolved in DMSO, whereby the final DMSO concentration in the test mixture is 1%. The test mixtures are incubated at 37° C./5% CO2 for five days and, after the addition of 15 μl of Lu164 substrate (5 mg/ml coelenterazine dissolved in 30 μM glutathione/DMSO, 100 mM NaCl, 1M MES, 100 mM glutathione), evaluated by luminometry. The resulting values are in the region of 1 000 000 RLUs (relative light units) for the virus control and 300 to 400 RLUs for the cell control. The EC50 values of the test substances are determined as the concentration at which the virus replication measured in RLUs is 50% of the untreated infected cells.

HIV-1LAI = test: H9 assay with wild-type HIV-1 (HIV-1LAI supernatant infection, AlamarBlue); conditions: Human immunodeficiency virus 1, H9 cells, 10% FCS
Method: For the mixture for a 96-well MTP, 3 million PBLs are pelleted, suspended in 1 ml of RPMI 1640 medium/10% FCS and incubated together with a suitable amount of HIV-1LAI (NIH AIDS Research & Reference Reagent Program, Germantown, USA) at 37° C. for 2 hours (pellet infection). Unadsorbed viruses are subsequently washed out with PBS, and the infected cells are pelleted again and suspended in 18 ml of RPMI 1640 medium/10% FCS/interleukin-2 (40 U/ml). 180 μl thereof are pipetted into each well of a white 96-well MTP with 20 μl of test substance in suitable dilution. Alternatively, after preparation of the substance dilutions in the MTP, the HIV is pipetted in together with the cells and is not washed out again (supernatant infection). In order to avoid edge effects, the wells at the edge of the MTP are not used for substance dilutions. The second vertical row of the MTP contains only infected cells (virus control) and the eleventh vertical row only uninfected cells (cell control), in each case in RPMI 1640 medium/10% FCS/interleukin-2 (40 U/ml). The other wells of the MTP contain the compounds of the invention in various concentrations starting from the third vertical row, from which the test substances are diluted in 3-fold steps up to the tenth vertical row 3^7-fold. The test substances are dissolved in DMSO, whereby the final DMSO concentration in the test mixture is 1%. The test mixtures are incubated at 37° C./5% CO2. After 5 and 7 days, 50 μl of cell-free supernatant are removed from each well to determine the amount of p24 present by means of a p24 ELISA (HIV-1 p24^CA Antigen Capture Assay Kit, NCI-Frederick Cancer Research and Development Center, Frederick, USA). From the resulting values of the photometric evaluation (450/620 nm) the EC50 values of the test substances are determined as the concentration at which the amount of p24 is 50% of the untreated infected cells.
Alternatively, H9 cells (ATCC, Wesel, Germany) are employed instead of PBLs for testing the test substances. H9 cells are incubated in RPMI 1640 medium with 2% or 10% FCS as a HIV-ILAI supernatant infection at 37° C./5% CO2, (20 μl of substance dilution and 80 μl of cells/virus per well) in accordance with the pattern described above for 5 days. Subsequently, 10 μl of AlamarBlue® (Invitrogen, Karlsruhe, Germany) are added to each well, and the MTPs are incubated at 37° C. for 3 hours before the fluorimetric evaluation takes place (544/590 nm). The resulting values are about 40 000 for the untreated uninfected cells and about 7000 for the untreated infected cells. In the low concentration range, the EC50 values of the test substances are determined as the concentration at which the fluorescence is 50% of the untreated uninfected cells (in each case subtracting the values of the untreated infected cells). In addition, in the high concentration range, the CC50 values of the test substances are determined as the concentration at which the fluorescence is 50% of the untreated uninfected cells (in each case subtracting the values of the untreated infected cells).

HIV-1NL4-3 wt = test: Light assay with wild-type HI reporter virus in MT4 7F2 cells; conditions: Human immunodeficiency virus 1, 2% FCS
Method: as §1

| SMILES | EC50 (HIV-1NL4-3 K103N-Y181C) | EC50 (HIV-1LAI) | EC50 (HIV-1NL4-3 wt) |
| --- | --- | --- | --- |
| N#Cc1cccc(-c2oc(C(=O)N3CCSC3)cc2-c2cc(F)cc(Cl)c2)c1 [Example 1, 3-[3-(3-Chloro-5-fluorophenyl)-5-(1,3-thiazolidin-3-ylcarbonyl)furan-2-yl]benzenecarbonitrile] | 550 nM | 65 nM | 4.5 nM |
| O=C(c1cc(-c2cc(F)cc(Cl)c2)c(-c2ccc(F)c(Cl)c2)o1)N1CCSC1 [Example 2, [5-(3-Chloro-4-fluorophenyl)-4-(3-chloro-5-fluorophenyl)furan-2-yl](1,3-thiazolidin-3-yl)methanone] | 1620 nM | 135 nM | 40 nM |
| N#Cc1cccc(-c2oc(C(=O)N3CC[S+]([O-])C3)cc2-c2cc(F)cc(Cl)c2)c1 (stereo not drawn) [Example 3, 3-{3-(3-Chloro-5-fluorophenyl)-5-[(1-oxido-1,3-thiazolidin-3-yl)carbonyl]furan-2-yl}benzenecarbonitrile] | 160 nM | 4.5 nM | < 1.5 nM |
| O=C(c1cc(-c2cc(F)cc(Cl)c2)c(-c2ccc(F)c(Cl)c2)o1)N1CC[S+]([O-])C1 (stereo not drawn) [Example 4, [5-(3-Chloro-4-fluorophenyl-1)-4-(3-chloro-5-fluorophenyl)furan-2-yl](1-oxido-1,3-thiazolidin-3-yl)methanone] | 261 nM | 12 nM | < 1.5 nM |
| N#Cc1cccc(-c2oc(C(=O)N3CCS(=O)(=O)C3)cc2-c2cc(F)cc(Cl)c2)c1 [Example 5, 3-{3-(3-Chloro-5-fluorophenyl)-5-[(1,1-dioxido-1,3-thiazolidin-3-yl)carbonyl]furan-2-yl}benzenecarbonitrile] | 305 nM | 17.5 nM | < 1.5 nM |
| O=C1CN(C(=O)c2cc(-c3cccc(Cl)c3)c(-c3ccc(F)cc3)o2)CCN1 [Example 6, 4-{[4-(3-Chlorophenyl)-5-(4-fluorophenyl)furan-2-yl]carbonyl}piperazin-2-one] | 283 nM | 400 nM | 48 nM |
| O=C1CN(C(=O)c2cc(-c3cc(F)cc(Cl)c3)c(-c3ccc(F)c(Cl)c3)o2)CCN1 [Example 7, 4-{[5-(3-Chloro-4-fluorophenyl)-4-(3-chloro-5-fluorophenyl)furan-2-yl]carbonyl}piperazin-2-one] | 186 nM | 46 nM | 5 nM |
| N#Cc1cccc(-c2oc(C(=O)N3CCNC(=O)C3)cc2-c2cc(F)cc(Cl)c2)c1 [Example 8, 3-{3-(3-Chloro-5-fluorophenyl)-5-[(3-oxopiperazin-1-yl)carbonyl]furan-2-yl}benzenecarbonitrile] | 160 nM | 7 nM | 1 nM |
| O=C(c1cc(-c2cc(F)cc(Cl)c2)c(-c2ccc(F)c(Cl)c2)o1)N1CCOCC1 [Example 9, [5-(3-Chloro-4-fluorophenyl)-4-(3-chloro-5-fluorophenyl)furan-2-yl](morpholin-4-yl)methanone] | 500 nM | 100 nM | 19 nM |
| N#Cc1cccc(-c2oc(C(=O)N3CC[C@@H](O)C3)cc2-c2cc(F)cc(Cl)c2)c1 [Example 10, 3-[3-(3-Chloro-5-fluorophenyl)-5-{[(3R)-3-hydroxypyrrolidin-1-yl]carbonyl}furan-2-yl]benzenecarbonitrile] | 183 nM | 14 nM | 1 nM |
| N#Cc1cccc(-c2oc(C(=O)N3CNC(=O)C3)cc2-c2cc(F)cc(Cl)c2)c1 [Example 12, 3-{3-(3-Chloro-5-fluorophenyl)-5-[(4-oxoimidazolidin-1-yl)carbonyl]furan-2-yl}benzenecarbonitrile] | 163 nM | 30 nM | 2 nM |
| O=C1CN(C(=O)c2cc(-c3cc(Cl)ccc3F)c(-c3cccc(Cl)c3)o2)CCN1 [Example 13, 4-{[4-(5-Chloro-2-fluorophenyl)-5-(3-chlorophenyl)furan-2-yl]carbonyl}piperazin-2-one] | 325 nM | 160 nM | 15 nM |
| O=C1CN(C(=O)c2cc(-c3cc(F)cc(Cl)c3)c(-c3cccc(Cl)c3)o2)CCN1 [Example 14, 4-{[4-(3-Chloro-5-fluorophenyl)-5-(3-chlorophenyl)furan-2-yl]carbonyl}piperazin-2-one] | 173 nM | 52 nM | 1 nM |
| O=C1CN(C(=O)c2cc(-c3cc(F)cc(F)c3)c(-c3cccc(Cl)c3)o2)CN1 [Example 15, 1-{[5-(3-Chlorophenyl-1)-4-(3,5-difluorophenyl)furan-2-yl]carbonyl}imidazolidin-4-one] | 350 nM | 110 nM | 9 nM |
| O=C1CN(C(=O)c2cc(-c3cc(F)cc(Cl)c3)c(-c3cccc(Cl)c3)o2)CN1 [Example 16, 1-{[4-(3-Chloro-5-fluorophenyl)-5-(3-chlorophenyl)furan-2-yl]carbonyl}imidazolidin-4-one] | 200 nM | 75 nM | 2 nM |
| O=C1CN(C(=O)c2cc(-c3cc(F)cc(F)c3)c(-c3cccc(Cl)c3)o2)CCN1 [Example 17, 4-{[5-(3-Chlorophenyl)-4-(3,5-difluorophenyl)furan-2-yl]carbonyl}piperazin-2-one] | 350 nM | 135 nM | 6 nM |
| Cc1cccc(-c2oc(C(=O)N3CCNC(=O)C3)cc2-c2cccc(Cl)c2)c1 [Example 18, 4-{[4-(3-Chlorophenyl)-5-(3-methylphenyl)furan-2-yl]carbonyl}piperazin-2-one] | 300 nM | 200 nM | 45 nM |
| O=C1CN(C(=O)c2cc(-c3cccc(Cl)c3)c(-c3ccc(F)c(F)c3)o2)CCN1 [Example 19, 4-{[4-(3-Chlorophenyl)-5-(3,4-difluorophenyl)furan-2-yl]carbonyl}piperazin-2-one] | 450 nM | 250 nM | 43 nM |
| N#Cc1cccc(-c2oc(C(=O)N3CCNC(=O)C3)cc2-c2cccc(Cl)c2)c1 [Example 20, 3-{3-(3-Chlorophenol)-5-[(3-oxopiperazin-1-yl)carbonyl]furan-2-yl}benzenecarbonitrile] | 137 nM | 50 nM | 2 nM |
| Cc1cc(-c2oc(C(=O)N3CCNC(=O)C3)cc2-c2cccc(Cl)c2)ccc1F [Example 21, 4-{[4-(3-Chlorophenyl)-5-(4-fluor-3-methylphenyl)furan-2-yl]carbonyl}piperazin-2-one] | 120 nM | 200 nM | 15 nM |
| O=C1CN(C(=O)c2cc(-c3cccc(Cl)c3)c(-c3ccc(F)c(Cl)c3)o2)CCN1 [Example 22, 4-{[5-(3-Chloro-4-fluorophenyl)-4-(3-chlorophenyl)furan-2-yl]carbonyl}piperazin-2-one] | 185 nM | 113 nM | 7 nM |
